PMC2893943 (Nanoscale Research Letters, 2010)

Assays:
[1] = six-day repeat dose side effect study: plasma drug exposure by LC/MS/MS; format: in vivo, Sprague–Dawley rats; details: 2 h post the last dose
[2] = cited from earlier work
[3] = system: plasma corticosterone (HPA axis suppression); details: fluticasone 0.1 mg/kg; ciclesonide 0.01 to 0.1 mg/kg/day; 28-day; cited from earlier work
[4] = system: antigen-induced airway inflammation (eosinophils in BALF); details: cited from earlier work; for ED50, antigen-induced influx of eosinophils in airway BALF and lung tissue: IT-administered; for ED50 for the inhibition of eosinophil infiltration into BALF: as quoted with the 7-day side effect study
[5] = system: thymus; test: six-day repeat dose side effect study: thymus involution; format: in vivo, Sprague–Dawley rats; details: at the ED50 dose, IT once daily, 6 days
[6] = system: LPS-induced inflammation model in rats; format: in vivo, Sprague–Dawley rats; details: for ED50 based on neutrophil infiltration and cytokine production data: IT instillation of nanosuspension; for ED50 based on neutrophil infiltration and cytokine production data / EDmax / dose of maximum effect (EDmax): rat LPS model; for ED50 in the LPS assay: IT nanosuspension prior to LPS challenge, inhibition of neutrophil infiltration or TNFα production in BALF; for EDmax / dose of maximum effect (EDmax): IT nanosuspension
[7] = particle size distribution before and after wet milling; format: physicochemical; details: for particle size D50 of the bulk material: before micronization; for particle size D50 after micronization: nanosuspension, wet milling
[8] = system: plasma corticosterone (HPA axis suppression); test: six-day repeat dose side effect study: plasma corticosterone level; format: in vivo, Sprague–Dawley rats; details: ED50 doses, 30 μg fluticasone, 2 h following the last dose
[9] = system: thymus; details: 7-day study, cited from earlier work
[10] = background statement, no reference given; cited from earlier work
[11] = system: adrenal; details: 7-day study, cited from earlier work
[12] = system: adrenal; test: six-day repeat dose side effect study: adrenal involution; format: in vivo, Sprague–Dawley rats; details: at the ED50 dose (30 μg fluticasone, 100 μg ciclesonide), IT once daily, 6 days
[13] = system: bone growth; details: 7-day study; cited from earlier work
[14] = IT administration, on the basis of dose

Compound	plasma protein binding [2] [%]	effect on plasma corticosterone levels [3]	ED50, antigen-induced influx of eosinophils in airway BALF and lung tissue [4] [mg/kg]	ED50 for the inhibition of eosinophil infiltration into BALF [4] [mg/kg]	average thymus involution [5] [%]	ED50 based on neutrophil infiltration and cytokine production data [6] [mg]	ED50 in the LPS assay [6] [µg]	EDmax [6] [mg]	dose of maximum effect (EDmax) [6] [µg]	particle size D50 of the bulk material [7] [μm]	particle size D50 after micronization [7] [μm]	average adrenal involution [12] [%]	other results
C[C@]12C=CC(=O)C=C1CC[C@@H]1[C@@H]2[C@@H](O)C[C@@]2(C)[C@H]1C[C@H]1O[C@@H](C3CCCCC3)O[C@]12C(=O)CO [des-CIC, desisobutyryl-ciclesonide]	> 99	–	–	–	–	–	–	–	–	–	–	–	ratio of systemic exposure, des-CIC versus fluticasone at ED50 doses [1]: greater than sixfold
CCC(=O)O[C@]1(C(=O)SCF)[C@H](C)C[C@H]2[C@@H]3C[C@H](F)C4=CC(=O)C=C[C@]4(C)[C@@]3(F)[C@@H](O)C[C@@]21C [fluticasone, fluticasone propionate]	90	significantly suppressed	0.068	0.095	59.5 ± 5.8	0.03	30	0.1	100	35	0.24	16.6 ± 5.1	fold lower level of plasma corticosterone than 100 μg ciclesonide [8]: approximately 10; fold more potent at inducing thymus involution compared to ciclesonide [9, 14]: sixfold; bioavailability [10]: < 1%; clearance [10]: ~ liver blood flow; fold more potent at inducing adrenal involution compared to ciclesonide [11, 14]: approximately 44
CC(C)C(=O)OCC(=O)[C@@]12O[C@H](C3CCCCC3)O[C@@H]1C[C@H]1[C@@H]3CCC4=CC(=O)C=C[C@]4(C)[C@H]3[C@@H](O)C[C@@]12C [ciclesonide]	> 99	did not change corticosterone levels	0.49	0.75	41.0 ± 4.3	0.1	100	0.3	300	56	0.22	7.6 ± 5.3	fold less potent than fluticasone in terms of ED50 ([4]; antigen-induced airway eosinophilia and Sephadex-induced lung edema): 7–9; ED50, inhibition of accumulation of eosinophils in BALF ([4]; separate study, same preclinical model): 0.5 mg/kg; fold less potent than fluticasone (ratio of ED50) ([6]; 100 μg/30 μg): threefold; fold less potent than fluticasone at inducing thymus involution [9]: sixfold; fold less potent than fluticasone at inducing adrenal involution [11]: 44; fold less potent than fluticasone at decreasing bone growth [13]: 22
